This note sets out measurements from patent US9447039B2, “Indole carboxamide derivatives and uses thereof” (priority 2012, dated 2016).

In brackets after ≈: the same amount, converted by molar mass.

For this experiment, the system named is Mycobacterium tuberculosis H37Rv (ATCC #27294). Briefly: Minimum Inhibitory Concentration (MIC50) determination. It is filed as cell-based. The following applies: 120 h. The method, then:
Mycobacterium tuberculosis H37Rv (ATCC #27294) (Mtb) strain was maintained in Middlebrook 7H9 broth medium supplemented with 0.05% Tween 80 and 10% ADS supplement. ADS supplement contains 5% bovine serum albumin fraction V. 2% D-dextrose and 0.8% of sodium chloride. Middlebrook 7H11 agar medium supplemented with 10% OADC (oleic acid, albumin, dextrose and catalase) was used as solid media for growing Mtb. Stock solutions of the compounds were prepared using 90% DMSO.
Minimum Inhibitory Concentration (MIC50) Determination
In Table 5 below, MIC50 is defined as the lowest concentration of the compound that inhibited 50% growth of the wild type strain compared to untreated controls. Test compounds were two or three fold serially diluted in duplicates and spotted by mosquito HTS to 384-well clear plates, resulting in 10 dilutions of each compound. A volume of 50 μl of Mtb culture (final OD600 of 0.02) was added to each well, and the assay plates were incubated at 37° C. for 5 days. Growth of bacteria was measured by reading absorbance at 600 nm using a Spectramax M2 spectrophotometer. MIC50 values were determined by using Activity Base software.
`Cc1cc(N2CCCCC2)cc2[nH]c(C(=O)N[C@@H]3CCCC[C@@H]3C)cc12` [Example 6C, 4-Methyl-N-((1R,2S)-2-methylcyclohexyl)-6-(piperidin-1-yl)-1H-indole-2-carboxamide]: the MIC50 – broadly, an inhibitory concentration at the 50% level, which refers to growth in some studies and to a panel of isolates in others – was 5.12 µM (≈ 1.81 µg/mL). On to `COc1ccc2[nH]c(C(=O)N[C@@H]3CCCC[C@@H]3C)cc2c1` [Example 4AR, 5-Methoxy-N-((1R,2S)-2-methylcyclohexyl)-1H-indole-2-carboxamide], for which the MIC50 worked out at 7.53 µM (≈ 2.16 µg/mL).

Consider `Cc1cc(Nc2ccccc2)cc2[nH]c(C(=O)N[C@@H]3CCCC[C@@H]3C)cc12` [Example 6A, 4-methyl-N-((1R,2S)-2-methylcyclohexyl)-6-(phenylamino)-1H-indole-2-carboxamide], for which the MIC50 is 0.145 µM (≈ 0.0524 µg/mL). Then `Cc1cc(C)c2cc(C(=O)Nc3ccccc3C)[nH]c2c1` [Example 3L, 4,6-Dimethyl-N-(o-tolyl)-1H-indole-2-carboxamide], with 3.12 µM (≈ 0.868 µg/mL); and `Cc1cc(C#N)cc2[nH]c(C(=O)N[C@@H]3CCCC[C@@H]3C)cc12` [Example 4AJ, 6-Cyano-4-methyl-N-((1R,2S)-2-methylcyclohexyl)-1H-indole-2-carboxamide], with 0.15 µM (≈ 0.0443 µg/mL). Turning to `Cc1cc(C)c2cc(C(=O)N[C@H]3CC[C@H](C(C)C)CC3)[nH]c2c1` [Example 4D, N-(trans-4-Isopropylcyclohexyl)-4,6-dimethyl-1H-indole-2-carboxamide], the MIC50 came out at 0.03 µM (≈ 0.00937 µg/mL). As to `Cc1cccc2[nH]c(C(=O)N[C@@H]3CCCC[C@@H]3C)cc12` [Example 4AA, 4-Methyl-N-((1R,2S)-2-methylcyclohexyl)-1H-indole-2-carboxamide], the MIC50 was 0.25 µM (≈ 0.0676 µg/mL). With `CC1CCC(NC(=O)c2cc3ccc(Cl)c(Cl)c3[nH]2)CC1` (centres unmarked) [Example 4W, 6,7-Dichloro-N-(4-methylcyclohexyl)-1H-indole-2-carboxamide] the figure was 0.72 µM (≈ 0.234 µg/mL); with `C[C@H]1CC[C@H](NC(=O)c2cc3c(Cl)cc(Cl)cc3[nH]2)CC1` [Example 4S, 4,6-Dichloro-N-(trans-4-methylcyclohexyl)-1H-indole-2-carboxamide], 0.14 µM (≈ 0.0455 µg/mL). With `CCC(CC)NC(=O)c1cc2c(C)cc(C)cc2[nH]1` [Example 3F, 4,6-Dimethyl-N-(pentan-3-yl)-1H-indole-2-carboxamide] the figure was 4.33 µM (≈ 1.12 µg/mL). Molecule `CCC(C)NC(=O)c1cc2c(C)cc(C)cc2[nH]1` (centres unmarked) [Example 3M, N-(sec-Butyl)-4,6-dimethyl-1H-indole-2-carboxamide] came in with an MIC50 of 9.33 µM (≈ 2.28 µg/mL).

The molecule `O=C(NC1CCC(F)(F)CC1)c1cc2c(Cl)cc(Cl)cc2[nH]1` [Example 4P, 4,6-Dichloro-N-(4,4-difluorocyclohexyl)-1H-indole-2-carboxamide] displayed an MIC50 of 0.565 µM (≈ 0.196 µg/mL). `Cc1cc(C)c2cc(C(=O)N[C@@H]3CCC[C@@H]3C)[nH]c2c1` [Example 4K, 4,6-Dimethyl-N-((1R,2S)-2-methylcyclopentyl)-1H-indole-2-carboxamide] had an MIC50 of 0.69 µM (≈ 0.187 µg/mL). As to `Cc1cc(C)c2cc(C(=O)NC3CCCCC3C)[nH]c2c1` (centres unmarked) [Example 3H, 4,6-Dimethyl-N-(2-methylcyclohexyl)-1H-indole-2-carboxamide], the MIC50 worked out at 0.32 µM (≈ 0.091 µg/mL). Against the preceding molecule, the MIC50 is about 2.2-fold lower. The molecule `Cc1cc(C)c2cc(C(=O)NCC(C)C)[nH]c2c1` [Example 3J, N-Isobutyl-4,6-dimethyl-1H-indole-2-carboxamide] had an MIC50 of 11.8 µM (≈ 2.9 µg/mL). Molecule `COc1ccc2cc(C(=O)N[C@@H]3CCCC[C@@H]3C)[nH]c2c1` [Example 4AM, 6-Methoxy-N-((1R,2S)-2-methylcyclohexyl)-1H-indole-2-carboxamide] came in with an MIC50 of 6.19 µM (≈ 1.77 µg/mL).

In turn, `Cc1cc(C)c2cc(C(=O)NC3CCCCC3C#N)[nH]c2c1` (centres unmarked) [Example 4Q, N-(2-Cyanocyclohexyl)-4,6-dimethyl-1H-indole-2-carboxamide] registered an MIC50 of 2.06 µM (≈ 0.608 µg/mL). Regarding `COCC1CCC(NC(=O)c2cc3c(Cl)cc(Cl)cc3[nH]2)CC1` (centres unmarked) [Example 8A, 4,6-Dichloro-N-(4-(methoxymethyl)cyclohexyl)-1H-indole-2-carboxamide], the MIC50 was 1.51 µM (≈ 0.536 µg/mL). `C[C@H]1CCCC[C@H]1NC(=O)c1cc2c(F)cc(F)cc2[nH]1` [Example 4BA, 4,6-Difluoro-N-((1R,2S)-2-methylcyclohexyl)-1H-indole-2-carboxamide] gave an MIC50 of 0.28 µM (≈ 0.0819 µg/mL). Then `Cc1cc(C)c2cc(C(=O)Nc3ccc(Cl)cc3)[nH]c2c1` [Example 3B, N-(4-Chlorophenyl)-4,6-dimethyl-1H-indole-2-carboxamide], with 2.95 µM (≈ 0.881 µg/mL); and `Cc1cc(C)c2cc(C(=O)NCC3CCCCC3)[nH]c2c1` [Example 3N, N-(Cyclohexylmethyl)-4,6-dimethyl-1H-indole-2-carboxamide], with 0.87 µM (≈ 0.247 µg/mL). `O=C(NC1CCCCC1)c1cc2c(F)cc(F)cc2[nH]1` [Example 4BB, N-Cyclohexyl-4,6-difluoro-1H-indole-2-carboxamide] displayed an MIC50 of over 20 µM.

Regarding `N#Cc1ccc2cc(C(=O)NC3CCC(F)(F)CC3)[nH]c2c1` [Example 4AG, 6-Cyano-N-(4,4-difluorocyclohexyl)-1H-indole-2-carboxamide], the MIC50 was 3.36 µM (≈ 1.02 µg/mL).

As to `CC1(C)CCC(NC(=O)c2cc3c(F)cc(F)cc3[nH]2)CC1` [Example 2A, N-(4,4-Dimethylcyclohexyl)-4,6-difluoro-1H-indole-2-carboxamide], the MIC50 is 0.023 µM (≈ 0.00705 µg/mL).

For `C[C@H]1CC[C@@H](NC(=O)c2cc3c(C#N)cc(C#N)cc3[nH]2)CC1` [Example 4AW, 4,6-Dicyano-N-(cis-4-methyl-cyclohexyl)-1H-indole-2-carboxamide], the MIC50 was over 20 µM.

In turn, `C[C@H]1CCCC[C@H]1NC(=O)c1cc2c(Cl)cc(Cl)cc2[nH]1` [Example 4J, 4,6-Dichloro-N-((1R,2S)-2-methylcyclohexyl)-1H-indole-2-carboxamide] showed an MIC50 of 0.035 µM (≈ 0.0114 µg/mL). The molecule `CC1CCC(NC(=O)c2cc3c(C(F)(F)F)cc(C(F)(F)F)cc3[nH]2)CC1` (centres unmarked) [Example 4H, N-(4-Methylcyclohexyl)-4,6-bis(trifluoromethyl)-1H-indole-2-carboxamide] showed an MIC50 of 0.32 µM (≈ 0.126 µg/mL). Molecule `Cc1cc(C)c2cc(C(=O)Nc3ccc(F)cc3)[nH]c2c1` [Example 3C, N-(4-Fluorophenyl)-4,6-dimethyl-1H-indole-2-carboxamide] yielded an MIC50 of 2.45 µM (≈ 0.692 µg/mL). This MIC50 lies about 7.7-fold higher than the previous one. With `COC1CCCCC1NC(=O)c1cc2c(C)cc(C)cc2[nH]1` (centres unmarked) [Example 4N, N-(2-Methoxycyclohexyl)-4,6-dimethyl-1H-indole-2-carboxamide], the MIC50 is 5.78 µM (≈ 1.74 µg/mL). In the case of `C[C@H]1CC[C@H](NC(=O)c2cc3c(F)cc(F)cc3[nH]2)CC1` [Example 4AU, 4,6-Difluoro-N-(trans-4-methylcyclohexyl)-1H-indole-2-carboxamide], the MIC50 stood at 0.56 µM (≈ 0.164 µg/mL). In turn, `O=C(NC1CCC(C(F)(F)F)CC1)c1cc2c(F)cc(F)cc2[nH]1` (centres unmarked) [Example 5B, 4,6-Difluoro-N-(4-(trifluoromethyl)-cyclohexyl)-1H-indole-2-carboxamide] gave an MIC50 of 1.19 µM (≈ 0.41 µg/mL). As for `C#CC1CCCCC1NC(=O)c1cc2c(Cl)cc(Cl)cc2[nH]1` (centres unmarked) [Example 4BE, 4,6-Dichloro-N-(2-ethynylcyclohexyl)-1H-indole-2-carboxamide], the MIC50 worked out at 0.22 µM (≈ 0.0738 µg/mL). For the molecule `CC1CCC(NC(=O)c2cc3c(Cl)cc(F)cc3[nH]2)CC1` (centres unmarked) [Example 4AT, 4-Chloro-6-fluoro-N-(4-methylcyclohexyl)-1H-indole-2-carboxamide], the MIC50 was 0.165 µM (≈ 0.0509 µg/mL). This MIC50 and that of the molecule before are within 1.5-fold of each other. Take `Cc1cc(C)c2cc(C(=O)N[C@H]3CCC[C@H](C)[C@H]3C)[nH]c2c1` [Example 4E, N-((1S,2R,3S)-2,3-Dimethylcyclohexyl)-4,6-dimethyl-1H-indole-2-carboxamide]: the MIC50 amounted to 0.08 µM (≈ 0.0239 µg/mL).

Consider `Cc1cc(C)c2cc(C(=O)N[C@@H]3CCCC[C@@H]3C)[nH]c2c1` [Example 4A, 4,6-Dimethyl-N-((1R,2S)-2-methylcyclohexyl)-1H-indole-2-carboxamide], for which the MIC50 amounted to 0.07 µM (≈ 0.0199 µg/mL). `CC1CCC(NC(=O)c2cc3c(F)cc(F)cc3[nH]2)CC1` (centres unmarked) [Example 4F, 4,6-Difluoro-N-(4-methylcyclohexyl)-1H-indole-2-carboxamide] showed an MIC50 of 0.37 µM (≈ 0.108 µg/mL). With `Cc1cc(C)c2cc(C(=O)NC3CCCCCC3)[nH]c2c1` [Example 3G, N-Cycloheptyl-4,6-dimethyl-1H-indole-2-carboxamide] the figure was 0.098 µM (≈ 0.0279 µg/mL).

Turning to `CC1CCC(NC(=O)c2cc3c(F)cc(Cl)cc3[nH]2)CC1` (centres unmarked) [Example 4AS, 6-Chloro-4-fluoro-N-(4-methylcyclohexyl)-1H-indole-2-carboxamide], the MIC50 was 0.23 µM (≈ 0.071 µg/mL).

As for `COc1ccc2[nH]c(C(=O)N[C@@H]3CCCC[C@@H]3C)cc2c1OC` [Example 4AN, 4,5-Dimethoxy-N-((1R,2S)-2-methylcyclohexyl)-1H-indole-2-carboxamide], the MIC50 stood at 1.02 µM (≈ 0.323 µg/mL).

Consider `Cc1cc(C)c2cc(C(=O)N[C@H]3CCC[C@@H](C)[C@H]3C)[nH]c2c1` [Example 4I, N-((1S,2R,3R)-2,3-Dimethylcyclohexyl)-4,6-dimethyl-1H-indole-2-carboxamide], for which the MIC50 turned out to be 0.02 µM (≈ 0.00597 µg/mL). Against the preceding molecule, the MIC50 is about 51-fold lower. Molecule `Cc1ccc(NC(=O)c2cc3c(C)cc(C)cc3[nH]2)cc1` [Example 3K, 4,6-Dimethyl-N-(p-tolyl)-1H-indole-2-carboxamide] had an MIC50 of 5.64 µM (≈ 1.57 µg/mL).
